According to PMC7116955 (Biochimica et Biophysica Acta. General Subjects, 2005):
“Also recorded” adds a separate entry of the source.

How the values were obtained:
Settings in all cases: pH 7.4
Pep 1E [1] = type: binding, SARS-CoV
Pep HR2 [2] = type: binding, SARS-CoV
Pep 2B [3] = type: binding, SARS-CoV
[4] = type: physicochemical
Pep HR2 [5] = type: binding, SARS-CoV; remark: listed apart in the source
[6] = type: physicochemical; remark: listed apart in the source
Pep 1E [7] = type: binding, SARS-CoV; remark: listed apart in the source
[8] = type: physicochemical; remark: listed apart in the source
Pep 1D = type: binding, SARS-CoV
Pep 2B [9] = type: binding, SARS-CoV; remark: listed apart in the source

WQEWEQKITALLEQAQIQQEKNEYELQKLDKWASLWEWF [Pep T-1249]
fluorescence emission intensity variation on titration with Pep 1E (Pep 1E [1]): The same occurs for T-1249, although the results are not so evident | fluorescence emission intensity variation on titration with Pep HR2 (Pep HR2 [2]): The same occurs for T-1249, although the results are not so evident | ANS fluorescence / interaction with Pep 2B (Pep 2B [3]): no evidence of interaction | self-aggregation by ANS fluorescence [4]: self-aggregate | ANS fluorescence / interaction with Pep HR2 (Pep HR2 [5]): no evidence of interaction | interaction with membranes [6]: most extensive interaction with membranes | ANS fluorescence / interaction with Pep 1E (Pep 1E [7]): does not interact | membrane partition in presence of Pep 1D [8]: The same occurs | membrane partition in presence of Pep 1E [8]: The same occurs | membrane partition in presence of Pep 2B [8]: no difference occurs | membrane partition in presence of Pep HR2 [8]: no difference occurs | ANS fluorescence increase / interaction with Pep 1D, S peptide added (Pep 1D): exhibit a larger variability; also recorded: low signal/noise ratios, preventing straightforward conclusions | fluorescence emission intensity variation on titration with Pep 2B (Pep 2B [9]): Fluorescence variation was not detected
